Patent US11390624B2, “Pyrazolopyridines and triazolopyridines as A2A / A2B inhibitors” (Incyte Corporation, priority 2019, dated 2022)

Key:
[1] = target: human adenosine A2B receptor (Homo sapiens (Human), UniProt P29275); assay: Adenosine A2B Receptor Cyclic AMP GS Assay; format: cell-based; details: HEK-293 cells, agonist NECA at 12 nM, cAMP accumulation; read-out: A2B—cAMP_EC50
Description: Stably transfected HEK-293 cells expressing the human adenosine A2B receptor (Perkin Elmer) were maintained in MEM culture medium with 10% FBS and 100 μg/mL Geneticin (Life Technologies). 18 to 24 hours prior to assay, geneticin was removed from culture. The cisbio cAMP-GS Dynamic kit utilizing the FRET (Fluorescence Resonance Energy Transfer) technology was used to measure cAMP accumulation in the cells. Compounds of the present disclosure at an appropriate concentration were mixed with 10000 cells/well in white 96 well half area plates (Perkin Elmer) for 30 min at room temperature gently shaking. Agonist, NECA (R&D Technologies) at 12 nM was added to each well for 60 min at room temperature gently shaking. Detection reagents, d2-labeled cAMP (acceptor) and anti-cAMP cryptate (donor) were added to each well for 60 min at RT gently shaking. Plates were read on Pherastar (BMG Labtech), fluorescence ratio 665/620 was calculated and EC50 determination was performed by fitting the curve of percent of control versus the log of the compound concentration using GraphPad Prism.

[2] = target: Adenosine A2A receptor (Tag-lite Adenosine A2A labeled cells) (Homo sapiens (Human), UniProt P29274); assay: A2A Tag-lite HTRF Assay; format: binding; details: displacement of Adenosine A2A Receptor Red antagonist fluorescent ligand, 12.5 nM
From the text: The final concentration of DMSO was 1%.

Adenosine A2A receptor (Tag-lite Adenosine A2A labeled cells), sequence (P29274 whole entry): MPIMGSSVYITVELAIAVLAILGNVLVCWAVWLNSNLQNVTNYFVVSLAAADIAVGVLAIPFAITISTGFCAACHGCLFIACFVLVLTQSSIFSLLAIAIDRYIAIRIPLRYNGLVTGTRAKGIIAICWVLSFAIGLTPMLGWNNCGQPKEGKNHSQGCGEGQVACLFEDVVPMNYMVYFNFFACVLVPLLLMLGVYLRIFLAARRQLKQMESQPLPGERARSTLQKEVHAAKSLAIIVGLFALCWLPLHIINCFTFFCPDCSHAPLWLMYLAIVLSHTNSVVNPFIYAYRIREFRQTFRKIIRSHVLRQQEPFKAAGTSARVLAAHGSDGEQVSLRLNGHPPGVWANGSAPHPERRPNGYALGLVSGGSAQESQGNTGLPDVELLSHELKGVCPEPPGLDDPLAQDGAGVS
human adenosine A2B receptor, sequence (P29275 whole entry): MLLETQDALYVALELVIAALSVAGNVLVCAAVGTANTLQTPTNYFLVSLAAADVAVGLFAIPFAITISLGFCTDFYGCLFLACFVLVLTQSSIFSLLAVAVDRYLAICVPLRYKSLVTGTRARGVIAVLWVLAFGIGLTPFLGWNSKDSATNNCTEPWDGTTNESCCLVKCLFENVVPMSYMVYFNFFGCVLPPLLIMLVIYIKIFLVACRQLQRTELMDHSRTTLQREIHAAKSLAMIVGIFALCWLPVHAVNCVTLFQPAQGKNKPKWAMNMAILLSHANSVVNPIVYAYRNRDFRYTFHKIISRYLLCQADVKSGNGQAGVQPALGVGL

SMILES | EC50 [1] [nM] | Ki [2] [nM]
N#Cc1cccc(-c2nc(N)c3cn(Cc4ncccc4F)nc3c2-c2ccncn2)c1 [Example 3, 3-(4-amino-2-((3-fluoropyridin-2-yl)methyl)-7-(pyrimidin-4-yl)-2H-pyrazolo[4,3-c]pyridin-6-yl)benzonitrile] | 10 to 100 | ≤ 10
N#Cc1cccc(-c2nc(N)c3cn(Cc4ccccn4)nc3c2-c2ccncn2)c1 [Example 1, 3-(4-amino-2-(pyridin-2-ylmethyl)-7-(pyrimidin-4-yl)-2H-pyrazolo[4,3-c]pyridin-6-yl)benzonitrile] | 10 to 100 | ≤ 10
Cn1nccc1-c1c(-c2cccc(C#N)c2F)nc(N)c2nn(Cc3ccccn3)nc12 [Example 39, 3-(4-amino-7-(1-methyl-1H-pyrazol-5-yl)-2-(pyridin-2-ylmethyl)-2H-[1,2,3]triazolo[4,5-c]pyridin-6-yl)-2-fluorobenzonitrile] | ≤ 10 | ≤ 10
N#Cc1cccc(-c2nc(N)c3nn(Cc4ncccc4F)nc3c2-c2ccncn2)c1 [Example 30, 3-(4-amino-2-((3-fluoropyridin-2-yl)methyl)-7-(pyrimidin-4-yl)-2H-[1,2,3]triazolo[4,5-c]pyridin-6-yl)benzonitrile] | ≤ 10 | ≤ 10
CCn1nccc1-c1c(-c2cccc(C#N)c2)nc(N)c2nn(Cc3cccc(C)n3)nc12 [Example 28, 3-(4-amino-7-(1-ethyl-1H-pyrazol-5-yl)-2-((6-methylpyridin-2-yl)methyl)-2H-[1,2,3]triazolo[4,5-c]pyridin-6-yl)benzonitrile] | ≤ 10 | ≤ 10
Cc1ncoc1-c1c(-c2cccc(C#N)c2)nc(N)c2nn(Cc3ncccc3F)nc12 [Example 36, 3-(4-amino-2-((3-fluoropyridin-2-yl)methyl)-7-(4-methyloxazol-5-yl)-2H-[1,2,3]triazolo[4,5-c]pyridin-6-yl)benzonitrile] | ≤ 10 | ≤ 10
Cc1cccc(Cn2nc3c(N)nc(-c4cccc(C#N)c4)c(-c4ccncc4)c3n2)n1 [Example 25, 3-(4-amino-2-((6-methylpyridin-2-yl)methyl)-7-(pyridin-4-yl)-2H-[1,2,3]triazolo[4,5-c]pyridin-6-yl)benzonitrile] | ≤ 10 | ≤ 10
CCn1nccc1-c1c(-c2cccc(C#N)c2)nc(N)c2nn(Cc3ccccn3)cc12 [Example 9, 3-(7-amino-4-(1-ethyl-1H-pyrazol-5-yl)-2-(pyridin-2-ylmethyl)-2H-pyrazolo[3,4-c]pyridin-5-yl)benzonitrile] | ≤ 10 | ≤ 10
CCn1nccc1-c1c(-c2cccc(C#N)c2)nc(N)c2nn(Cc3ncccc3F)cc12 [Example 14, 3-(7-amino-4-(1-ethyl-1H-pyrazol-5-yl)-2-((3-fluoropyridin-2-yl)methyl)-2H-pyrazolo[3,4-c]pyridin-5-yl)benzonitrile] | ≤ 10 | ≤ 10
N#Cc1cccc(-c2nc(N)c3nn(Cc4ccccn4)nc3c2-c2ccc3nccnc3c2)c1 [Example 23, 3-(4-amino-2-(pyridin-2-ylmethyl)-7-(quinoxalin-6-yl)-2H-[1,2,3]triazolo[4,5-c]pyridin-6-yl)benzonitrile] | 100 to 1000 | ≤ 10
Cc1ncoc1-c1c(-c2cccc(C#N)c2)nc(N)c2nn(Cc3ccccn3)nc12 [Example 17, 3-(4-amino-7-(4-methyloxazol-5-yl)-2-(pyridin-2-ylmethyl)-2H-[1,2,3]triazolo[4,5-c]pyridin-6-yl)benzonitrile] | ≤ 10 | ≤ 10
CCn1nccc1-c1c(-c2cccc(C#N)c2)nc(N)c2nn(Cc3cccc(C)n3)cc12 [Example 11, 3-(7-amino-4-(1-ethyl-1H-pyrazol-5-yl)-2-((6-methylpyridin-2-yl)methyl)-2H-pyrazolo[3,4-c]pyridin-5-yl)benzonitrile] | 10 to 100 | ≤ 10
CC(C)n1nccc1-c1c(-c2cccc(C#N)c2F)nc(N)c2nn(Cc3ccccn3)nc12 [Example 40, 3-(4-amino-7-(1-isopropyl-1H-pyrazol-5-yl)-2-(pyridin-2-ylmethyl)-2H-[1,2,3]triazolo[4,5-c]pyridin-6-yl)-2-fluorobenzonitrile] | ≤ 10 | ≤ 10
Cc1cccc(Cn2nc3c(N)nc(-c4cccc(C#N)c4)c(-c4ccncn4)c3n2)n1 [Example 24, 3-(4-amino-2-((6-methylpyridin-2-yl)methyl)-7-(pyrimidin-4-yl)-2H-[1,2,3]triazolo[4,5-c]pyridin-6-yl)benzonitrile] | ≤ 10 | ≤ 10
Cc1nc(CO)c(-c2c(-c3cccc(C#N)c3)nc(N)c3nn(Cc4ccccn4)nc23)o1 [Example 20, 3-(4-amino-7-(4-(hydroxymethyl)-2-methyloxazol-5-yl)-2-(pyridin-2-ylmethyl)-2H-[1,2,3]triazolo[4,5-c]pyridin-6-yl)benzonitrile] | ≤ 10 | ≤ 10
Cc1cccc(Cn2cc3c(-c4ocnc4C)c(-c4cccc(C#N)c4)nc(N)c3n2)n1 [Example 13] | 10 to 100 | ≤ 10
CC(C)n1nccc1-c1c(-c2cccc(C#N)c2)nc(N)c2nn(Cc3ncccc3F)nc12 [Example 34, 3-(4-amino-2-((3-fluoropyridin-2-yl)methyl)-7-(1-isopropyl-1H-pyrazol-5-yl)-2H-[1,2,3]triazolo[4,5-c]pyridin-6-yl)benzonitrile] | ≤ 10 | ≤ 10
Cc1ncoc1-c1c(-c2cccc(C#N)c2)nc(N)c2nn(C(C)c3ccccn3)nc12 (stereo not drawn) [Example 46, 3-(4-amino-7-(4-methyloxazol-5-yl)-2-(1-(pyridin-2-yl)ethyl)-2H-[1,2,3]triazolo[4,5-c]pyridin-6-yl)benzonitrile] | ≤ 10 | ≤ 10
